Test results: patent publication US20250145665A1, “MACROCYCLIC PEPTIDES USEFUL AS MODULATORS OF TNF ALPHA” (Bristol-Myers Squibb Company, priority 2023, published 2025)
Where two headings read alike, the source gives them in different places. Starred links: 1 amine or outer side, 2 acyl side, 3 side chain; linkers in the order of their positions; H or OH if unused. Positions of bridges follow the written chain, without caps; N, C: chain ends. Non-standard residues stand in square brackets, D forms with d. Residues, ends and D or L forms follow the SMILES beside them. *: point of attachment. Bip(4'-NHCO-C6H4-3-CH2COOH) = N[C@@H](Cc1ccc(-c2ccc(NC(=O)c3cccc(CC(=O)O)c3)cc2)cc1)C(=O)O; X56 = O=C(O)COc1cccc(NC(=O)c2ccc(-c3ccc(C[C@H](N[*:1])C(=O)[*:2])cc3)cc2)c1; X65 = O=C(O)Cc1cccc(NC(=O)c2ccc(-c3ccc(C[C@H](N[*:1])C(=O)[*:2])cc3)cc2)c1; X21 = N=C(NCCC[C@@H](N[*:1])C(=O)[*:2])NC[C@H](O)[C@@H](O)[C@@H](O)CO; dArg(ω-(2S)-2,3-diOHpropyl) = N=C(NCCC[C@@H](N)C(=O)O)NC[C@H](O)CO; Bip(4'-NH) = O=C([C@H](Cc1ccc(-c2ccc(N[*:3])cc2)cc1)N[*:1])[*:2]; dArg(ω-(3-HO-benzyl)) = N=C(NCCC[C@@H](N)C(=O)O)NCc1cccc(O)c1; Indazole3carbonyl(1-CH2COOH) = O=C(O)Cn1nc(C(=O)*)c2ccccc21; Bip(4'-COOH) = N[C@@H](Cc1ccc(-c2ccc(C(=O)O)cc2)cc1)C(=O)O; Indole3carbonyl(1-CH2COOH) = O=C(O)Cn1cc(C(=O)*)c2ccccc21; X68 = N=C(NCCC[C@@H](N[*:1])C(=O)[*:2])NCc1ccc(O)c(O)c1; X69 = N=C(NCCC[C@@H](N[*:1])C(=O)[*:2])NCc1cccc(N)c1; dArg(ω-Bn) = N=C(NCCC[C@@H](N)C(=O)O)NCc1ccccc1; Ala(morpholin-4-yl) = N[C@@H](CN1CCOCC1)C(=O)O; Phe(3-CONH2) = NC(=O)c1cccc(C[C@H](N)C(=O)O)c1; Bip = N[C@@H](Cc1ccc(-c2ccccc2)cc1)C(=O)O; 2Pal = N[C@@H](Cc1ccccn1)C(=O)O; 2Thi = N[C@@H](Cc1cccs1)C(=O)O; Cha = N[C@@H](CC1CCCCC1)C(=O)O; Sar = CNCC(=O)O

Target: TNFα (Homo sapiens, UniProt P01375)
Assay: TNF-Induced HEK-Blue Assay
Format: cell-based
[1] = HEK-Blue-CD40L cells, NF-kB-driven secreted alkaline phosphatase reporter, TNFα 0.5 ng/ml, 18 h, read-out: TNF induced HEK-Blue assay IC50 value

Sequence of TNFα (P01375 77-233 limits assumed): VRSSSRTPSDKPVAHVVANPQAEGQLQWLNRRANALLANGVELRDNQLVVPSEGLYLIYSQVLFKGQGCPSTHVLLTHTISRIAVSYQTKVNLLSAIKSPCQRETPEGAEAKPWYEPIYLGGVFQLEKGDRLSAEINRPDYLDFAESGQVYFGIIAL

| SMILES | IC50 | IC50 [1] |
| --- | --- | --- |
| CC(C)C[C@@H]1NC(=O)[C@H](Cc2ccc(O)cc2)NC(=O)[C@H](C(C)C)NC(=O)[C@@H]2CCCN2C(=O)[C@H](C(C)C)NC(=O)[C@@H](CCCNC(=N)NCc2cccc(O)c2)NC(=O)[C@H](CC(=O)O)NC(=O)[C@@H]2CCCN2C(=O)CN(C)C(=O)[C@H](Cc2ccc(-c3ccc(NC(=O)c4nn(CC(=O)O)c5ccccc45)cc3)cc2)NC(=O)[C@H](Cc2ccc(-c3ccccc3)cc2)NC(=O)[C@H](CN2CCOCC2)NC(=O)CSC[C@@H](C(=O)NCC(N)=O)NC1=O [Example 625] ({CH2CO}-[Ala(morpholin-4-yl)][Bip][Bip(4'-NH)](Indazole3carbonyl(1-CH2COOH))[Sar]PD[dArg(ω-(3-HO-benzyl))]VPVYLCG-NH2; thioether N-13) | < 0.05 µM | – |
| CC(C)C[C@@H]1NC(=O)[C@H](Cc2cccs2)NC(=O)[C@H](C(C)C)NC(=O)[C@@H]2CCCN2C(=O)[C@H](C(C)C)NC(=O)[C@@H](CCCNC(=N)NCc2cccc(O)c2)NC(=O)[C@H](CC(=O)O)NC(=O)[C@H](Cc2ccccn2)NC(=O)CN(C)C(=O)[C@H](Cc2ccc(-c3ccc(NC(=O)c4nn(CC(=O)O)c5ccccc45)cc3)cc2)NC(=O)[C@H](Cc2ccc(-c3ccccc3)cc2)NC(=O)[C@H](CN2CCOCC2)NC(=O)CSC[C@@H](C(=O)NCC(N)=O)NC1=O [Example 626] ({CH2CO}-[Ala(morpholin-4-yl)][Bip][Bip(4'-NH)](Indazole3carbonyl(1-CH2COOH))[Sar][2Pal]D[dArg(ω-(3-HO-benzyl))]VPV[2Thi]LCG-NH2; thioether N-13) | 0.05 to 0.2 µM | – |
| CC(C)C[C@@H]1NC(=O)[C@H](CCCNC(=N)N)NC(=O)[C@H](C(C)C)NC(=O)[C@@H]2CCCN2C(=O)[C@H](C(C)C)NC(=O)[C@@H](CCCNC(=N)NC[C@H](O)[C@@H](O)[C@@H](O)CO)NC(=O)[C@H](CC(=O)O)NC(=O)[C@@H]2CCCN2C(=O)CN(C)C(=O)[C@H](Cc2ccc(-c3ccc(NC(=O)c4cccc(CC(=O)O)c4)cc3)cc2)NC(=O)[C@H](Cc2ccc(-c3ccccc3)cc2)NC(=O)[C@H](CN2CCOCC2)NC(=O)CSC[C@@H](C(=O)NCC(N)=O)NC1=O [Example 627] ({CH2CO}-[Ala(morpholin-4-yl)][Bip][Bip(4'-NHCO-C6H4-3-CH2COOH)][Sar]PD[X21]VPVRLCG-NH2; thioether N-13) | – | 0.05 to 0.2 µM |
| CC(C)C[C@@H]1NC(=O)[C@H](Cc2cnc[nH]2)NC(=O)[C@H](C(C)C)NC(=O)[C@@H]2CCCN2C(=O)[C@H](C(C)C)NC(=O)[C@@H](CCCNC(=N)NCc2ccccc2)NC(=O)[C@H](CC(=O)O)NC(=O)[C@H](Cc2ccccn2)NC(=O)CN(C)C(=O)[C@H](Cc2ccc(-c3ccc(NC(=O)c4nn(CC(=O)O)c5ccccc45)cc3)cc2)NC(=O)[C@H](Cc2ccc(-c3ccccc3)cc2)NC(=O)[C@H](CN2CCOCC2)NC(=O)CSC[C@@H](C(=O)NCC(N)=O)NC1=O [Example 628] ({CH2CO}-[Ala(morpholin-4-yl)][Bip][Bip(4'-NH)](Indazole3carbonyl(1-CH2COOH))[Sar][2Pal]D[dArg(ω-Bn)]VPVHLCG-NH2; thioether N-13) | < 0.05 µM | – |
| CC(C)C[C@@H]1NC(=O)[C@H](Cc2cnc[nH]2)NC(=O)[C@H](C(C)C)NC(=O)[C@@H]2CCCN2C(=O)[C@H](C(C)C)NC(=O)[C@@H](CCCNC(=N)NCc2ccccc2)NC(=O)[C@H](CC(=O)O)NC(=O)[C@H](Cc2ccccn2)NC(=O)CN(C)C(=O)[C@H](Cc2ccc(-c3ccc(NC(=O)c4cn(CC(=O)O)c5ccccc45)cc3)cc2)NC(=O)[C@H](Cc2ccc(-c3ccccc3)cc2)NC(=O)[C@H](CN2CCOCC2)NC(=O)CSC[C@@H](C(=O)NCC(N)=O)NC1=O [Example 629] ({CH2CO}-[Ala(morpholin-4-yl)][Bip][Bip(4'-NH)](Indole3carbonyl(1-CH2COOH))[Sar][2Pal]D[dArg(ω-Bn)]VPVHLCG-NH2; thioether N-13) | 0.05 to 0.2 µM | – |
| CC[C@H](C)[C@@H]1NC(=O)[C@@H](CCCNC(=N)N)NC(=O)[C@H](CC(=O)O)NC(=O)[C@H](Cc2cnc[nH]2)NC(=O)CN(C)C(=O)[C@H](Cc2ccc(-c3ccc(C(=O)Nc4cccc(CC(=O)O)c4)cc3)cc2)NC(=O)[C@H](Cc2ccc(-c3ccc(C(=O)O)cc3)cc2)NC(=O)[C@H](CC2CCCCC2)NC(=O)CSC[C@@H](C(=O)NCC(N)=O)NC(=O)[C@H](CC(C)C)NC(=O)[C@H](Cc2cnc[nH]2)NC(=O)[C@H](C(C)C)NC(=O)[C@@H]2CCCN2C1=O [Example 630] ({CH2CO}-[Cha][Bip(4'-COOH)][X65][Sar]HD[dR]IPVHLCG-NH2; thioether N-13) | – | 0.05 to 0.2 µM |
| CC[C@H](C)[C@@H]1NC(=O)[C@@H](CCCNC(=N)N)NC(=O)[C@H](CC(=O)O)NC(=O)[C@H](Cc2cnc[nH]2)NC(=O)CN(C)C(=O)[C@H](Cc2ccc(-c3ccc(C(=O)Nc4cccc(OCC(=O)O)c4)cc3)cc2)NC(=O)[C@H](Cc2ccc(-c3ccccc3)cc2)NC(=O)[C@H](Cc2cccc(C(N)=O)c2)NC(=O)CSC[C@@H](C(=O)NCC(N)=O)NC(=O)[C@H](CC(C)C)NC(=O)[C@H](Cc2cnc[nH]2)NC(=O)[C@H](C(C)C)NC(=O)[C@@H]2CCCN2C1=O [Example 631] ({CH2CO}-[Phe(3-CONH2)][Bip][X56][Sar]HD[dR]IPVHLCG-NH2; thioether N-13) | – | 0.05 to 0.2 µM |
| CC[C@H](C)[C@@H]1NC(=O)[C@@H](CCCNC(=N)N)NC(=O)[C@H](CC(=O)O)NC(=O)[C@H](Cc2cnc[nH]2)NC(=O)CN(C)C(=O)[C@H](Cc2ccc(-c3ccc(C(=O)Nc4cccc(OCC(=O)O)c4)cc3)cc2)NC(=O)[C@H](Cc2ccc(-c3ccc(C(=O)O)cc3)cc2)NC(=O)[C@H](Cc2cccc(C(N)=O)c2)NC(=O)CSC[C@@H](C(=O)NCC(N)=O)NC(=O)[C@H](CC(C)C)NC(=O)[C@H](Cc2cnc[nH]2)NC(=O)[C@H](C(C)C)NC(=O)[C@@H]2CCCN2C1=O [Example 632] ({CH2CO}-[Phe(3-CONH2)][Bip(4'-COOH)][X56][Sar]HD[dR]IPVHLCG-NH2; thioether N-13) | – | 0.05 to 0.2 µM |
| CC[C@H](C)[C@@H]1NC(=O)[C@@H](CCCNC(=N)N)NC(=O)[C@H](CC(=O)O)NC(=O)[C@H](Cc2cnc[nH]2)NC(=O)CN(C)C(=O)[C@H](Cc2ccc(-c3ccc(C(=O)Nc4cccc(CC(=O)O)c4)cc3)cc2)NC(=O)[C@H](Cc2ccc(-c3ccc(C(=O)O)cc3)cc2)NC(=O)[C@H](Cc2cccc(C(N)=O)c2)NC(=O)CSC[C@@H](C(=O)NCC(N)=O)NC(=O)[C@H](CC(C)C)NC(=O)[C@H](Cc2cnc[nH]2)NC(=O)[C@H](C(C)C)NC(=O)[C@@H]2CCCN2C1=O [Example 634] ({CH2CO}-[Phe(3-CONH2)][Bip(4'-COOH)][X65][Sar]HD[dR]IPVHLCG-NH2; thioether N-13) | – | 0.05 to 0.2 µM |
| CC(C)C[C@@H]1NC(=O)[C@H](CCCNC(=N)N)NC(=O)[C@H](C(C)C)NC(=O)[C@@H]2CCCN2C(=O)[C@H](C(C)C)NC(=O)[C@@H](CCCNC(=N)NCc2ccc(O)c(O)c2)NC(=O)[C@H](CC(=O)O)NC(=O)[C@@H]2CCCN2C(=O)CN(C)C(=O)[C@H](Cc2ccc(-c3ccc(NC(=O)c4nn(CC(=O)O)c5ccccc45)cc3)cc2)NC(=O)[C@H](Cc2ccc(-c3ccccc3)cc2)NC(=O)[C@H](CN2CCOCC2)NC(=O)CSC[C@@H](C(=O)NCC(N)=O)NC1=O [Example 635] ({CH2CO}-[Ala(morpholin-4-yl)][Bip][Bip(4'-NH)](Indazole3carbonyl(1-CH2COOH))[Sar]PD[X68]VPVRLCG-NH2; thioether N-13) | < 0.05 µM | – |
| CC(C)C[C@@H]1NC(=O)[C@H](CCCNC(=N)N)NC(=O)[C@H](C(C)C)NC(=O)[C@@H]2CCCN2C(=O)[C@H](C(C)C)NC(=O)[C@@H](CCCNC(=N)NCc2cccc(N)c2)NC(=O)[C@H](CC(=O)O)NC(=O)[C@@H]2CCCN2C(=O)CN(C)C(=O)[C@H](Cc2ccc(-c3ccc(NC(=O)c4nn(CC(=O)O)c5ccccc45)cc3)cc2)NC(=O)[C@H](Cc2ccc(-c3ccccc3)cc2)NC(=O)[C@H](CN2CCOCC2)NC(=O)CSC[C@@H](C(=O)NCC(N)=O)NC1=O [Example 636] ({CH2CO}-[Ala(morpholin-4-yl)][Bip][Bip(4'-NH)](Indazole3carbonyl(1-CH2COOH))[Sar]PD[X69]VPVRLCG-NH2; thioether N-13) | < 0.05 µM | – |
| CC[C@H](C)[C@@H]1NC(=O)[C@@H](CCCNC(=N)NCc2cccc(O)c2)NC(=O)[C@H](CC(=O)O)NC(=O)[C@@H]2CCCN2C(=O)CN(C)C(=O)[C@H](Cc2ccc(-c3ccc(NC(=O)c4nn(CC(=O)O)c5ccccc45)cc3)cc2)NC(=O)[C@H](Cc2ccc(-c3ccccc3)cc2)NC(=O)[C@H](CN2CCOCC2)NC(=O)CSC[C@@H](C(=O)NCC(N)=O)NC(=O)[C@H](CC(C)C)NC(=O)[C@H](Cc2cnc[nH]2)NC(=O)[C@H](C(C)C)NC(=O)[C@@H]2CCCN2C1=O [Example 637] ({CH2CO}-[Ala(morpholin-4-yl)][Bip][Bip(4'-NH)](Indazole3carbonyl(1-CH2COOH))[Sar]PD[dArg(ω-(3-HO-benzyl))]IPVHLCG-NH2; thioether N-13) | < 0.05 µM | – |
| CC(C)C[C@@H]1NC(=O)[C@H](Cc2cccs2)NC(=O)[C@H](C(C)C)NC(=O)[C@@H]2CCCN2C(=O)[C@H](C(C)C)NC(=O)[C@@H](CCCNC(=N)NCc2ccccc2)NC(=O)[C@H](CC(=O)O)NC(=O)[C@H](Cc2ccccn2)NC(=O)CN(C)C(=O)[C@H](Cc2ccc(-c3ccc(NC(=O)c4nn(CC(=O)O)c5ccccc45)cc3)cc2)NC(=O)[C@H](Cc2ccc(-c3ccccc3)cc2)NC(=O)[C@H](CN2CCOCC2)NC(=O)CSC[C@@H](C(=O)NCC(N)=O)NC1=O [Example 638] ({CH2CO}-[Ala(morpholin-4-yl)][Bip][Bip(4'-NH)](Indazole3carbonyl(1-CH2COOH))[Sar][2Pal]D[dArg(ω-Bn)]VPV[2Thi]LCG-NH2; thioether N-13) | < 0.05 µM | – |
| CC(C)C[C@@H]1NC(=O)[C@H](Cc2cccs2)NC(=O)[C@H](C(C)C)NC(=O)[C@@H]2CCCN2C(=O)[C@H](C(C)C)NC(=O)[C@@H](CCCNC(=N)NC[C@H](O)CO)NC(=O)[C@H](CC(=O)O)NC(=O)[C@H](Cc2ccccn2)NC(=O)CN(C)C(=O)[C@H](Cc2ccc(-c3ccc(NC(=O)c4nn(CC(=O)O)c5ccccc45)cc3)cc2)NC(=O)[C@H](Cc2ccc(-c3ccccc3)cc2)NC(=O)[C@H](CN2CCOCC2)NC(=O)CSC[C@@H](C(=O)NCC(N)=O)NC1=O [Example 639] ({CH2CO}-[Ala(morpholin-4-yl)][Bip][Bip(4'-NH)](Indazole3carbonyl(1-CH2COOH))[Sar][2Pal]D[dArg(ω-(2S)-2,3-diOHpropyl)]VPV[2Thi]LCG-NH2; thioether N-13) | < 0.05 µM | – |
